{"source": "patent US20240238380A1", "about": "“COMPOSITION FOR COMBINATION THERAPY COMPRISING GROWTH DIFFERENTIATION FACTOR-15 VARIANT AND GLUCAGON-LIKE PEPTIDE-1 RECEPTOR AGONIST” (YUHAN CORPORATION, priority 2021, published 2024)", "format_in_all_cases": "in vivo", "key": {"[1]": {"assay": "Inhibitory effect on gastric emptying (acetaminophen exposure) in normal rats (Example 8)", "details": "rats; for gastric emptying (in words): vs. negative control", "description": "Therefore, this example was performed to investigate the inhibitory effect on gastric emptying when the novel long-acting GDF15 fusion protein was administered at the doses equal to the effective dose, higher than the maximum effective dose, or in combination with a GLP-1 receptor agonist to rats. 6-week-old male SD rats (Orient Bio, Republic of Korea) were purchased from Hallym Lab. Animal Inc., Republic of Korea. Animals were acclimated for 7 days. On the day of drug administration, the rats were grouped based on the average body weight of individual rats (n=5 per group) and fasted for at least 6 hours before oral administration of acetaminophen. Then, 0.1, 1, and 10 nmol/kg of FM9-6+Fc_hole, 10 nmol/kg of semaglutide (long-acting GLP-1 derivative, SEQ ID NO: 114), and combination of FM9-6+Fc_hole and semaglutide (1+10 nmol/kg) were subcutaneously administered. The semaglutide was Ozempic® (semaglutide) from Novo NorDisk. As a negative control drug, D-PBS (normal vehicle) was subcutaneously administered, and as a positive control drug, 30 mg/kg of loperamide was orally administered 45 minutes before acetaminophen administration. On 3, 24 and 72 hours after a single dose of the test articles, acetaminophen was orally administered at 100 mg/kg to rats, and blood samples were collected before and at 30, 60, 90, 120 and 150 minutes after acetaminophen administration. The plasma concentration of acetaminophen was analyzed, and the pharmacokinetic profiles and the systemic exposures of acetaminophen were compared to evaluate the inhibitory effect on gastric emptying among the groups."}, "[2]": {"assay": "Anti-obesity and metabolic parameter effects alone and in combination with large dose of semaglutide in ob/ob mice (Example 6)", "details": "30 nmol/kg s.c. Q3D", "excerpt": "5-week-old male ob/ob mice (Jackson Laboratory, USA) were purchased from Raon Bio (Animal Inc., Republic of Korea). The ob/ob mice were acclimatized with normal chow or normal chow diet (Teklad Certified Irradiated Global 18% Protein Rodent Diet, 2918C, Harlan Co., USA) for 5 weeks, and drug treatment was started at 10 weeks of age. On the day before drug treatment, the mice were grouped based on the body weight of individual mice and random blood glucose levels determined by sampling at the tail vein (n=6 per group). Thereafter, 1 nmol/kg of FM9-6+Fc_hole alone, 30 nmol/kg of semaglutide alone, and FM9-6+Fc_hole and semaglutide in combination (1+30 nmol/kg) were subcutaneously administered thereto a total of 9 times every 3 days (Q3D), and body weight, food intake, and non-fasting blood glucose were measured every day or every 3 days during the experimental period (24 days). Here, DPBS (Dulbecco's phosphate-buffered saline, Gibco, USA) was administered for vehicle treatment."}, "[3]": {"assay": "Anti-obesity effect by repeated administration alone and in combination with semaglutide in ob/ob mice (Example 5)", "excerpt": "The ob/ob mouse has a mutation in the leptin gene resulting in leptin deficiency, and are characterized by hyperglycemia, insulin resistance, overeating, and obesity. 5-week-old male ob/ob mice (Jackson Laboratory, USA) were purchased from Raon Bio (Animal Inc., Republic of Korea). The ob/ob mice were acclimatized with normal food (Teklad Certified Irradiated Global 18% Protein Rodent Diet, 2918C, Harlan Co., USA) for 4 weeks, and drug treatment was started at 9 weeks of age. On the day before drug treatment, the mice were grouped based on the body weight of individual mice and random blood glucose levels determined by sampling at the tail vein (n=6 per group). Thereafter, 1 and 10 nmol/kg of FM9-6+Fc_hole alone, 10 and 30 nmol/kg of semaglutide alone, and FM9-6+Fc_hole and semaglutide at doses of 1+10 and 10+10 nmol/kg in combination were subcutaneously administered thereto a total of 10 times every 3 days (Q3D), and body weight and food intake were measured every day or every 3 days during the experimental period (29 days). Here, DPBS (Dulbecco's phosphate-buffered saline, Gibco, USA) was administered for vehicle treatment."}, "[4]": {"assay": "Anti-obesity effect alone and in combination with semaglutide in diet-induced obese (DIO) mice (Example 4)", "details": "for Change in body weight (%) vs. day 0, Maximum efficacy: 8 weeks", "excerpt": "Diet-induced obese (DIO) mice, obtained by feeding mice with high-fat food, are characterized by obesity, hyperglycemia, and insulin resistance. Diet-induced obese mice (Taconic, USA) resulting from feeding C57BL/6N mice with high-fat food (60 kcal % fat, Research Diets, Cat #D12492, USA) for 8 weeks were purchased from Raon Bio (Animal Inc., Republic of Korea). The diet-induced obese mice were additionally fed with 60% high-fat food for 5 weeks after arrival, and then used in the present test. On the day before drug treatment, the mice were grouped based on the average body weight of individual mice (n=6 per group), after which 10 and 30 nmol/kg of FM9-6+Fc_hole alone, 10 and 30 nmol/kg of semaglutide (long-acting GLP-1 derivative, SEQ ID NO: 114) alone as a control drug, and FM9-6+Fc_hole and semaglutide were administered subcutaneously every 2 days (Q2D) for a total of 8 weeks in a combination of 10+10 and 30+30 nmol/kg. The semaglutide that was used in the test was Ozempic® (semaglutide) from Novo NorDisk. Here, for vehicle treatment, DPBS (Dulbecco's phosphate-buffered saline, Gibco, USA) was subcutaneously administered every 2 days (Q2D). Body weight was measured every 2 days from the first day of drug treatment to day 54, and the results thereof are shown in Table 4 below."}, "[5]": {"assay": "Anti-obesity effect alone and in combination with semaglutide or tirzepatide in DIO mice (Example 7)", "details": "10 nmol/kg s.c. Q3D", "excerpt": "Diet-induced obese (DIO) mice, obtained by feeding mice with high-fat diet, are characterized by obesity, hyperglycemia, and insulin resistance. Diet-induced obese mice (Taconic, USA) resulting from feeding C57BL/6N mice with high-fat food (60 kcal % fat, Research Diets, Cat #D12492, USA) for 8 weeks were purchased from Raon Bio (Animal Inc., Republic of Korea). The diet-induced obese mice were additionally fed with 60% high-fat food for 5 weeks after arrival, and then used in the present test. On the day before drug treatment, the mice were grouped based on the average body weight of individual mice (n=6 per group), after which 0.1 and 1 nmol/kg of FM9-6+Fc_hole alone, 10 nmol/kg of semaglutide (long-acting GLP-1 derivative, SEQ ID NO: 114) and 10 nmol/kg of tirzepatide (long-acting GLP-1/GIP derivative, SEQ ID NO: 117) alone as control drugs, FM9-6+Fc_hole and semaglutide at doses of 0.1+10 and 1+10 nmol/kg in combination, and FM9-6+Fc_hole and tirzepatide at doses of 1+10 nmol/kg in combination were subcutaneously administered thereto every 3 days (Q3D) for a total of 4 weeks. The semaglutide that was used in the test was Ozempic® (semaglutide) from Novo NorDisk, and the tirzepatide that was used was a material synthesized by MedChemExpress (HY-P1731B, USA). Here, DPBS (Dulbecco's phosphate-buffered saline, Gibco, USA) was administered for vehicle treatment, and, during the experimental period (26 days), body weight was measured every day and food intake was measured every 3 days."}}, "note": "Marks after values point to notes of the source that are not given here.", "data": [{"substance": "semaglutide [reference compound]", "values": [{"measurement": "AUClast of acetaminophen (μg · min/mL), 3 hr", "setting": "[1]; 10 nmol/kg s.c. single dose, acetaminophen 3 hr after dose", "result": "266.43*** μg · min/mL"}, {"measurement": "AUClast of acetaminophen (μg · min/mL), 24 hr", "setting": "[1]; 10 nmol/kg s.c. single dose, acetaminophen 24 hr after dose", "result": 2577.72, "unit": "µg·min/mL"}, {"measurement": "AUClast of acetaminophen (μg · min/mL), 72 hr", "setting": "[1]; 10 nmol/kg s.c. single dose, acetaminophen 72 hr after dose", "result": 3354.48, "unit": "µg·min/mL"}, {"measurement": "gastric emptying (in words)", "setting": "[1]; 24 and 72 hours after administration", "result": "gastric emptying was restored"}, {"measurement": "gastric emptying (in words)", "setting": "[1]; 3 hours after administration", "result": "inhibition of gastric emptying"}, {"measurement": "Change in body weight (%) vs. ob/ob control, Efficacy on Day 24", "setting": "[2]", "result": "−10.08**** %"}, {"measurement": "Mean of random blood glucose levels (mg/dL), Efficacy on Day 24", "setting": "[2]", "result": "155.7**** mg/dL"}, {"measurement": "Change in body weight (%) vs. ob/ob control, Maximum efficacy", "setting": "[3]; 10 nmol/kg s.c. Q3D", "result": "−10.04 (On Day 25)*** %"}, {"measurement": "Change in body weight (%) vs. ob/ob control, Efficacy on Day 29", "setting": "[3]; 10 nmol/kg s.c. Q3D", "result": "−6.88* %"}, {"measurement": "Change in body weight (%) vs. ob/ob control, Maximum efficacy", "setting": "[3]; 30 nmol/kg s.c. Q3D", "result": "−11.38 (On Day 25)**** %"}, {"measurement": "Change in body weight (%) vs. ob/ob control, Efficacy on Day 29", "setting": "[3]; 30 nmol/kg s.c. Q3D", "result": "−9.92**** %"}, {"measurement": "Change in body weight (%) vs. day 0, Maximum efficacy", "setting": "[4]; 10 nmol/kg s.c. Q2D", "result": "−26.71 (On Day 30)**** %"}, {"measurement": "Change in body weight (%) vs. day 0, Efficacy on Day 54", "setting": "[4]; 10 nmol/kg s.c. Q2D", "result": "−17.34**** %"}, {"measurement": "Change in body weight (%) vs. day 0, Maximum efficacy", "setting": "[4]; 30 nmol/kg s.c. Q2D", "result": "−28.13 (On Day 21)**** %"}, {"measurement": "Change in body weight (%) vs. day 0, Efficacy on Day 54", "setting": "[4]; 30 nmol/kg s.c. Q2D", "result": "−13.40**** %"}, {"measurement": "Change in body weight (%) vs. day 0, Maximum efficacy", "setting": "[5]; 4 weeks", "result": "−18.95 (On Day 19)**** %"}, {"measurement": "Change in body weight (%) vs. day 0, Efficacy on Day 26", "setting": "[5]; Day 26", "result": "−17.69**** %"}]}]}
